Experimental data reported in ChEMBL document CHEMBL1151250, “A DNA-damaging oxoaporphine alkaloid from Piper caninum” (J Nat Prod, 2004).

Tests used:
Format in all cases: functional, organism-based
Saccharomyces cerevisiae [1] = assay: Antimicrobial activity against Saccharomyces cerevisiae RS321NpRAD52 in presence of galactose
Saccharomyces cerevisiae [2] = assay: Antimicrobial activity against Saccharomyces cerevisiae RS321NpRAD52 in presence of glucose
Saccharomyces cerevisiae [3] = assay: Antimicrobial activity against Saccharomyces cerevisiae RS321NYCp50 in presence of galactose

Work on CN1C(=O)C(=O)c2cc3c(c4c2c1cc1ccccc14)OCO3 [CEPHARADIONE A] yielded an IC50 (Saccharomyces cerevisiae [1]) of 115 µg/mL, an IC50 (Saccharomyces cerevisiae [2]) of 0.05 µg/mL and an IC50 (Saccharomyces cerevisiae [3]) of 0.2 µg/mL.
